Results: paper PMC4619619, “Diversity of Active States in TMT Opsins” (PLoS ONE, 2015)

Key:
[1] = target: T1, medaka TMT1A opsin (C-terminally truncated) (Oryzias latipes, UniProt R9R6D2); test: UV-visible spectroscopy; HPLC of chromophore; assay type: binding; conditions: covalent (Schiff base); formed in situ by orange light (>540 nm) from the all-trans state; 0 °C
T1 construct: gene tmtops1a; C-terminal 63 residues deleted; C-terminal rho1D4 tag (ETSQVAPA) kept; HEK293T, pMT4; purified in dodecyl maltoside, also membranes; cDNA cloned from medaka brain
T1 sequence (R9R6D2 1-342): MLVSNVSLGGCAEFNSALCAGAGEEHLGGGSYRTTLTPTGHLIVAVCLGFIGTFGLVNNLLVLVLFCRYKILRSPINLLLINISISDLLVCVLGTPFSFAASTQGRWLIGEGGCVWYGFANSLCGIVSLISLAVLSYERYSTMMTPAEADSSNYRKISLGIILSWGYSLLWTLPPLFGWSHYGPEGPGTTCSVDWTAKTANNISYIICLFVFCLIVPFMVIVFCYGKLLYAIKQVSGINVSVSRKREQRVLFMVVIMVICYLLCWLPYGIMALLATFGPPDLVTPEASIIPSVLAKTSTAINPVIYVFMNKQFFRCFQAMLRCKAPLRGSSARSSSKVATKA

[2] = target: T2, medaka TMT2 opsin (Oryzias latipes, UniProt R9R6C6); test: UV-visible spectroscopy; HPLC of chromophore; assay type: binding; conditions: covalent (Schiff base); reconstituted pigment in the dark; 0 °C, pH 6.5, 0.02% dodecyl maltoside
T2 construct: gene tmtops2; full length; C-terminal rho1D4 tag (ETSQVAPA) kept; HEK293T, pMT4; partially purified in dodecyl maltoside, also membranes; cDNA cloned from medaka brain
T2 sequence (R9R6C6 1-355): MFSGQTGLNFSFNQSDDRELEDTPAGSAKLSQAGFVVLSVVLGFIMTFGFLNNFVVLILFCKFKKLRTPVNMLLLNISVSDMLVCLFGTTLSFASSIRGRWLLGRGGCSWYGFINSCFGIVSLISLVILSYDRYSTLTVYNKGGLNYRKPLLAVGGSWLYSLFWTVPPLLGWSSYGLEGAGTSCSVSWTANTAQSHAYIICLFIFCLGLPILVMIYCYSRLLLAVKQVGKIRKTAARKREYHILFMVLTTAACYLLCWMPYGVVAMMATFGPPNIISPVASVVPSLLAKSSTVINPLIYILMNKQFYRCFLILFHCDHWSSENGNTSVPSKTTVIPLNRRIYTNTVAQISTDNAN

[3] = target: T3, full-length TMT1A opsin (Oryzias latipes, UniProt R9R6D2); test: UV-visible spectroscopy; assay type: binding; conditions: covalent (Schiff base); reconstituted pigment
T3 construct: gene tmtops1a; full length; C-terminal rho1D4 tag (ETSQVAPA) kept; HEK293T, pMT4; purified
T3 sequence (R9R6D2 1-405): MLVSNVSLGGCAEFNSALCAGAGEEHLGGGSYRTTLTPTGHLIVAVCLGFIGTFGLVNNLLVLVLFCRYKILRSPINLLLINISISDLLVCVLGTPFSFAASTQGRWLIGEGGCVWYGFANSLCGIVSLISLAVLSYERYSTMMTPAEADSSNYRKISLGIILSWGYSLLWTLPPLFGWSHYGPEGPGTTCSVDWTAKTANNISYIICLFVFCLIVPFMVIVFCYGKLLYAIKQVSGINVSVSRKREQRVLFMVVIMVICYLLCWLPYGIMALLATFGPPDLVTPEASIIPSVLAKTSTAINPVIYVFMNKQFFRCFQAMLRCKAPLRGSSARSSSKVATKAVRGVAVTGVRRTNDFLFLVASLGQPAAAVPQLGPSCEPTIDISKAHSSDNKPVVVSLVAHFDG

[4] = target: T4, medaka TMT1A opsin (C-terminally truncated) (Oryzias latipes, UniProt R9R6D2, T190S); test: UV-visible spectroscopy before and after irradiation; assay type: binding; conditions: covalent (Schiff base); 0 °C; bovine rhodopsin numbering; truncation of mutant not stated
T4 construct: gene tmtops1a; C-terminal 63 residues deleted; C-terminal rho1D4 tag (ETSQVAPA) kept; HEK293T, pMT4; purified in dodecyl maltoside, also membranes; cDNA cloned from medaka brain

[5] = target: T1, medaka TMT1A opsin (C-terminally truncated); test: UV-visible spectroscopy; HPLC of chromophore; GTPγS exchange with Gi and Go; assay type: biochemical; conditions: covalent (protonated Schiff base); agonist; formed in situ by blue light (460 nm); 0 °C
[6] = target: T2, medaka TMT2 opsin; test: UV-visible spectroscopy; acid denaturation; HPLC; GTPγS exchange with Gi and Go; assay type: biochemical; conditions: covalent (unprotonated Schiff base); agonist; formed in situ by blue light (460 nm); 0 °C

T4 sequence (R9R6D2 entry or part of it T190S): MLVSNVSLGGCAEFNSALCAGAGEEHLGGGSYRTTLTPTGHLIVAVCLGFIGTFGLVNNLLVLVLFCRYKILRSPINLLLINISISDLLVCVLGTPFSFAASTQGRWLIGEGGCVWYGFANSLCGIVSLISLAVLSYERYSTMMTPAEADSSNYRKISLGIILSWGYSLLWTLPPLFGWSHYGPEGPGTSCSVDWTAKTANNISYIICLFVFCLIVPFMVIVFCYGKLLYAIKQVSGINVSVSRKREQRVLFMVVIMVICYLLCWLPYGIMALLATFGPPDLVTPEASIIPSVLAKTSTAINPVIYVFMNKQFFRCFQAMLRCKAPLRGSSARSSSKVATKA

Compound: CC1=C(\C=C/C(C)=C/C=C/C(C)=C/C=O)C(C)(C)CCC1 [7-cis-retinal]
- UV-visible spectroscopy; HPLC of chromophore [1]: showed the formation of products having 9-cis and 7-cis forms (Fig 2E)

Compound: CC1=C(/C=C/C(C)=C\C=C\C(C)=C\C=O)C(C)(C)CCC1 [9-cis-retinal]
- UV-visible spectroscopy; HPLC of chromophore [1]: showed the formation of products having 9-cis and 7-cis forms (Fig 2E)

Compound: CC1=C(/C=C/C(C)=C/C=C\C(C)=C\C=O)C(C)(C)CCC1 [11-cis-retinal]
- UV-visible spectroscopy; HPLC of chromophore [2]: partially purified pigment of TMT2 opsin after reconstitution with 11-cis-retinal
- UV-visible spectroscopy [3]: Full-length pigment was formed after reconstitution with 11-cis-retinal
- UV-visible spectroscopy before and after irradiation [4]: We then constructed a single mutant (T186S) of TMT1A opsin

Compound: CC1=C(/C=C/C(C)=C/C=C/C(C)=C/C=O)C(C)(C)CCC1 [all-trans-retinal]
- UV-visible spectroscopy; HPLC of chromophore; GTPγS exchange with Gi and Go [5]: indicating that the all-trans product is a G protein-activating state
- UV-visible spectroscopy; acid denaturation; HPLC; GTPγS exchange with Gi and Go [6]: indicating that the all-trans product was the G protein-activating state of TMT2 opsin
